# Experimental data taken from patent US11661431B2, “Thienopyrrole compounds” (Gilead Sciences, Inc., priority 2021, dated 2023).
# Where two headings read alike, the source gives them in different places.
# What was measured:
# TLR7 = TLR7 (Homo sapiens (Human), UniProt Q9NYK1); assay: TLR7 human peripheral blood mononuclear cell (PBMC) cell-based assay (GS-986 as agonist; IL-6 and IFNα readout); details: TLR7 agonist GS-986 at 400 nM, 6 hours, antagonist potency
# How it was run: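 Human PBMCs (100,000 cells/well) preincubated 1 h at 37 °C with antagonist in 10-point dose response, then stimulated with TLR7 agonist for a further 6 h at 37 °C, 5% CO2. Supernatant IL-6 and IFNα measured by electrochemiluminescence immunoassay.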
# TLR8 = TLR8 (Homo sapiens (Human), UniProt Q9NR97); assay: TLR8 human peripheral blood mononuclear cell (PBMC) cell-based assay (Compound A as agonist; TNFα and IL12p40 readout); details: TLR8 agonist Compound A at 800 nM, 6 hours, antagonist potency
# Sequence of TLR8 (Q9NR97 27-1041): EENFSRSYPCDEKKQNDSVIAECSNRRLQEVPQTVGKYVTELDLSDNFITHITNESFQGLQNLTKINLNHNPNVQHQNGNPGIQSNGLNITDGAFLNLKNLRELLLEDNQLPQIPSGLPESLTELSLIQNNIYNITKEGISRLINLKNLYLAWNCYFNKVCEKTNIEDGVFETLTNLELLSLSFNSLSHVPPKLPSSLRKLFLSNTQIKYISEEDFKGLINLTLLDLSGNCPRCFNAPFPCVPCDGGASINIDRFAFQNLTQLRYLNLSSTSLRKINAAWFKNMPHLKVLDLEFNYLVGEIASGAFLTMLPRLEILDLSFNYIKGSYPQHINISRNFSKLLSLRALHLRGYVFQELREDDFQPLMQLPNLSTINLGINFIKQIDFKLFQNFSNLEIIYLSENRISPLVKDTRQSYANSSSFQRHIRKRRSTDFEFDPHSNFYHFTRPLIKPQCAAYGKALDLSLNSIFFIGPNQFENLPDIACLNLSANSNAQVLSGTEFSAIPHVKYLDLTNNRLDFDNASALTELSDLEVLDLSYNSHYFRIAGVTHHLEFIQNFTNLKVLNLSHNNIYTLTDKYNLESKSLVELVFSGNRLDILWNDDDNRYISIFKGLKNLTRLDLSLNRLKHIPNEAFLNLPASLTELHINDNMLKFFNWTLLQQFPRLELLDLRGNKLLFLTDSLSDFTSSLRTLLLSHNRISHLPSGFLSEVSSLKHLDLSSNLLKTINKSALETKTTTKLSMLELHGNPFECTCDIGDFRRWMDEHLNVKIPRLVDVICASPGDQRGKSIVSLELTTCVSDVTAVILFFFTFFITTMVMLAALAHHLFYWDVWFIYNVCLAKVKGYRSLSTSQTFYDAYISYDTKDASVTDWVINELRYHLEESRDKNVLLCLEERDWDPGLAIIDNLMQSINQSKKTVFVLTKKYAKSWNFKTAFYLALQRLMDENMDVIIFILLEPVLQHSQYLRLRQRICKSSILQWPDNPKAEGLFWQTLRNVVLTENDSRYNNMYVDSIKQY
# [1] = human PBMCs, read-out: TLR-7 EC50
# [2] = human PBMCs, read-out: TLR-8 EC50
# Sequence of TLR7 (Q9NYK1 27-1049): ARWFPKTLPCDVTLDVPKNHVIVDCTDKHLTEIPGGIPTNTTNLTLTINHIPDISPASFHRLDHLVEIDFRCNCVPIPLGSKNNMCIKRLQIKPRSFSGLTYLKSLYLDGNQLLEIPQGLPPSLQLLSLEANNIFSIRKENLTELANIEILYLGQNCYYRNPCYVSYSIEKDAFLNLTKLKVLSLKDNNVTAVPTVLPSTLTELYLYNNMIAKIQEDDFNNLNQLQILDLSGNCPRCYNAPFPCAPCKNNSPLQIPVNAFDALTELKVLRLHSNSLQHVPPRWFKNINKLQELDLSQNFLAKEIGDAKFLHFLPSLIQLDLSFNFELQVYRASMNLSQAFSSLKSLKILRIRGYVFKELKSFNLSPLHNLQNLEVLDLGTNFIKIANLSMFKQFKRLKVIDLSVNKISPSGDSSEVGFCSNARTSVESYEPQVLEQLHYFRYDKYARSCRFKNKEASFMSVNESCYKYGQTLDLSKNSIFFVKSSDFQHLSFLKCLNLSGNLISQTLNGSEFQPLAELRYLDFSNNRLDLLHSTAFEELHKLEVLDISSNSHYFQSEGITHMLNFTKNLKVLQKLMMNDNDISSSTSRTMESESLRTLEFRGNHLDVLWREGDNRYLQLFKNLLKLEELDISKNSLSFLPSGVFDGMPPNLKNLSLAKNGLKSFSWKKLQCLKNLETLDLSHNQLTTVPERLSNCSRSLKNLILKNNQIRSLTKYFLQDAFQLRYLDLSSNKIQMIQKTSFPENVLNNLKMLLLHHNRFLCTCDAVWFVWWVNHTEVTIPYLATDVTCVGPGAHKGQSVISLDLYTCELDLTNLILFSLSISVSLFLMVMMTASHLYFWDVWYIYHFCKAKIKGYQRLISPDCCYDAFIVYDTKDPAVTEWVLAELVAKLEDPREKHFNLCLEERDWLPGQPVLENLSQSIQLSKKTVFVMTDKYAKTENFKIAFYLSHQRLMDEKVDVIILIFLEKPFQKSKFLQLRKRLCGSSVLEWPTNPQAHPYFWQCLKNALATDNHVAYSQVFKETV
Compound,EC50 (TLR7; [1]),EC50 (TLR8; [2]),"EC50 (TLR7; TLR-7 EC50, human PBMCs)","EC50 (TLR8; TLR-8 EC50, human PBMCs)"
Cc1c(C2C3CNCC32)sc2[nH]c(-c3cc(C)c4ncnn4c3)c(C(C)C)c12 (stereo not shown) [Example 201],< 50 pM,360 pM,–,–
Cc1nc2c(C)cc(-c3[nH]c4sc(C5CCN(CC(N)=O)CC5)c(C)c4c3C(C)C)cn2n1 [Example 134],740 pM,12600 pM,–,–
Cc1c(C2CCN(C(=O)[C@H]3CNCCO3)CC2)sc2[nH]c(-c3cc(C)c4ncnn4c3)c(C(C)C)c12 [Example 46],590 pM,13000 pM,–,–
Cc1c(C2CCN(C(=O)[C@@H]3CCCN3)CC2)sc2[nH]c(-c3cc(C)c4ncnn4c3)c(C(C)C)c12 [Example 14],210 pM,13800 pM,–,–
Cc1c(C2CCN(C(=O)CN3CCOCC3)CC2)sc2[nH]c(-c3cc(C)c4ncnn4c3)c(C(C)C)c12 [Example 50],1760 pM,35900 pM,–,–
Cc1c(C2CC3(CCN(CC(N)=O)CC3)C2)sc2[nH]c(-c3cc(C)c4ncnn4c3)c(C(C)C)c12 [Example 124],300 pM,3220 pM,–,–
Cc1c(C2CCN(C(=O)C34CC(CN3)C4)CC2)sc2[nH]c(-c3cc(C)c4ncnn4c3)c(C(C)C)c12 [Example 40],70 pM,3140 pM,–,–
Cc1nc2c(C)cc(-c3[nH]c4sc(C5CCN(C(=O)[C@H]6COCCN6)CC5)c(C)c4c3C(C)C)cn2n1 [Example 135],280 pM,27000 pM,–,–
Cc1c(-c2[nH]c3sc([C@@H]4C[C@@H]5C[C@H]4CN5Cc4ccc[nH]c4=O)c(C)c3c2C(C)C)cn2ncnc2c1C [Example 171],< 50 pM,60 pM,–,–
Cc1c(C23CNCC2C3)sc2[nH]c(-c3cc(C)c4ncnn4c3)c(C(C)C)c12 (stereo not shown) [Example 193],200 pM,2870 pM,–,–
Cc1c(C2C[C@@H]3C[C@H]2CN3CC(N)=O)sc2[nH]c(-c3cc(C)c4ncnn4c3)c(C(C)C)c12 (stereo partly shown) [Example 66],120 pM,160 pM,–,–
Cc1c(C2CCN(C(=O)C3COCC(C)(C)N3)CC2)sc2[nH]c(-c3cc(C)c4ncnn4c3)c(C(C)C)c12 (stereo not shown) [Example 54],590 pM,19800 pM,–,–
Cc1c(-c2[nH]c3sc([C@@H]4C[C@@H]5C[C@H]4CN5Cc4cc[nH]c(=O)c4)c(C)c3c2C(C)C)cn2ncnc2c1C [Example 177],500 pM,70 pM,–,–
"Cc1c(-c2[nH]c3sc(C4COC5(CCN(CC(N)=O)CC5)C4)c(C)c3c2C(C)C)cn2ncnc2c1C (single isomer, unassigned) [Example 88, 2-(3-(5-(7,8-dimethyl-[1,2,4]triazolo[1,5-a]pyridin-6-yl)-4-isopropyl-3-methyl-6H-thieno[2,3-b]pyrrol-2-yl)-1-oxa-8-azaspiro[4.5]decan-8-yl)acetamide]",1440 pM,23800 pM,–,–
Cc1c(C2CC3COCC(C2)N3CCO)sc2[nH]c(-c3cc(C)c4ncnn4c3)c(C(C)C)c12 (stereo not shown) [Example 33],7190 pM,45900 pM,–,–
Cc1c(-c2[nH]c3sc(C4C[C@H]5CC[C@@H]4N5CC(N)=O)c(C)c3c2C(C)C)cn2ncnc2c1C (stereo partly shown) [Example 227],–,–,5070 pM,15500 pM
Cc1c(-c2[nH]c3sc([C@@H]4C[C@@H]5C[C@H]4CN5CCS(C)(=O)=O)c(C)c3c2C(C)C)cn2ncnc2c1C [Example 83],450 pM,610 pM,–,–
"Cc1c(-c2[nH]c3sc(C4CC5(CCN(CC(N)=O)C5)C4)c(C)c3c2C(C)C)cn2ncnc2c1C (single isomer, unassigned) [Example 86, 2-(2-(5-(7,8-dimethyl-[1,2,4]triazolo[1,5-a]pyridin-6-yl)-4-isopropyl-3-methyl-6H-thieno[2,3-b]pyrrol-2-yl)-6-azaspiro[3.4]octan-6-yl)acetamide]",2430 pM,980 pM,–,–
Cc1c(C2CCN(S(=O)(=O)N3CCN(C)CC3)CC2)sc2[nH]c(-c3cc(C)c4ncnn4c3)c(C(C)C)c12 [Example 157],170 pM,29600 pM,–,–
Cc1c(-c2[nH]c3sc(C4CC5(C4)CC(N(C4COC4)C4COC4)C5)c(C)c3c2C(C)C)cn2ncnc2c1C (stereo not shown) [Example 188],5640 pM,27200 pM,–,–
Cc1c(-c2[nH]c3sc([C@@H]4C[C@@H]5C[C@H]4CN5Cc4cccc(=O)[nH]4)c(C)c3c2C(C)C)cn2ncnc2c1C [Example 170],< 50 pM,260 pM,–,–

# The next lines start with results.
EC50 (TLR7; [1]),EC50 (TLR8; [2]),Compound,"EC50 (TLR7; TLR-7 EC50, human PBMCs)","EC50 (TLR8; TLR-8 EC50, human PBMCs)"
200 pM,13500 pM,Cc1c(C2CCNCC2)sc2[nH]c(-c3ccc(C#N)c4ncccc34)c(C(C)C)c12 [Example 247],–,–
10100 pM,48800 pM,Cc1cc2ncnn2cc1-c1[nH]c2sc(C3CCN(CC(N)=O)CC3)c(C)c2c1C(C)C [Example 235],–,–
710 pM,2770 pM,"Cc1c(-c2[nH]c3sc([C@@H]4C[C@@H]5C[C@H]4CN5C4CCS(=O)(=O)C4)c(C)c3c2C(C)C)cn2ncnc2c1C (stereo partly drawn) [Example 294, 3-[(1S,4R)-5-[5-(7,8-dimethyl-[1,2,4]triazolo[1,5-a]pyridin-6-yl)-4-isopropyl-3-methyl-6H-thieno[2,3-b]pyrrol-2-yl]-2-azabicyclo[2.2.1]heptan-2-yl]thiolane 1,1-dioxide]",–,–
970 pM,830 pM,"Cc1c(-c2[nH]c3sc([C@@H]4C[C@@H]5C[C@H]4CN5CC(=O)N4CC(O)C4)c(C)c3c2C(C)C)cn2ncnc2c1C [Example 265, 2-((1S,4R,5R)-5-(5-(7,8-dimethyl-[1,2,4]triazolo[1,5-a]pyridin-6-yl)-4 isopropyl-3-methyl-6H-thieno[2,3-b]pyrrol-2-yl)-2-azabicyclo[2.2.1]heptan-2-yl)-1-(3-hydroxyazetidin-1-yl)ethan-1-one]",–,–
940 pM,9390 pM,"Cc1c(-c2[nH]c3sc(C4CCN(C5CCCNC5=O)CC4)c(C)c3c2C(C)C)cn2ncnc2c1C (stereo not shown) [Example 286, 3-[4-[5-(7,8-dimethyl-[1,2,4]triazolo[1,5-a]pyridin-6-yl)-4-isopropyl-3-methyl-6H-thieno[2,3-b]pyrrol-2-yl]-1-piperidyl]piperidin-2-one]",–,–
890 pM,13600 pM,"Cc1cc(-c2[nH]c3sc(C4CCNCC4)c(CO)c3c2C(C)C)cn2ncnc12 [Example 258, (4-isopropyl-5-(8-methyl-[1,2,4]triazolo[1,5-a]pyridin-6-yl)-2-(piperidin-4-yl)-6H-thieno[2,3-b]pyrrol-3-yl)methanol]",–,–
100 pM,6400 pM,Cc1c(-c2[nH]c3sc(C4CCC(N5CC[C@H](F)C5)CC4)c(C)c3c2C(C)C)cn2ncnc2c1C (stereo partly shown) [Example 302],–,–
290 pM,69300 pM,Cc1c(C2CCN(CC(N)=O)CC2)sc2[nH]c(-c3cc(C)c4nccn4c3)c(C(C)C)c12 [Example 237],–,–
47300 pM,108000 pM,"Cc1c(-c2[nH]c3sc(C4CCC45CN(CC(N)=O)C5)c(C)c3c2C(C)C)cn2ncnc2c1C (single isomer, unassigned) [Example 316, 2-(5-(5-(7,8-dimethyl-[1,2,4]triazolo[1,5-a]pyridin-6-yl)-4-isopropyl-3-methyl-6H-thieno[2,3-b]pyrrol-2-yl)-2-azaspiro[3.3]heptan-2-yl)acetamide]",–,–
60 pM,18500 pM,"Cc1c(-c2[nH]c3sc(C4CCN(C(=O)[C@H]5C[C@@]6(CN(CCO)CCO6)C5)CC4)c(C)c3c2C(C)C)cn2ncnc2c1C [Example 295, [4-[5-(7,8-dimethyl-[1,2,4]triazolo[1,5-a]pyridin-6-yl)-4-isopropyl-3-methyl-6H-thieno[2,3-b]pyrrol-2-yl]-1-piperidyl]-[8-(2-hydroxethyl)-5-oxa-8-azaspiro[3.5]nonan-2-yl]methanone]",–,–
< 50 pM,1500 pM,"Cc1c(-c2[nH]c3sc(C4CC(C(=O)N5CCNCC5)C4)c(C)c3c2C(C)C)cn2ncnc2c1C (single isomer, unassigned) [Example 239, (3-(5-(7,8-dimethyl-[1,2,4]triazolo[1,5-a]pyridin-6-yl)-4-isopropyl-3-methyl-6H-thieno[2,3-b]pyrrol-2-yl)cyclobutyl)(piperazin-1-yl)methanone]",–,–
450 pM,880 pM,Cc1c(-c2[nH]c3sc([C@@H]4C[C@@H]5C[C@H]4CN5CCS(C)(=O)=O)cc3c2C(C)C)cn2ncnc2c1C [Example 218],–,–
150 pM,3590 pM,"COCc1c(C2CCNCC2)sc2[nH]c(-c3cc(C)c4ncnn4c3)c(C(C)C)c12 [Example 259, 4-isopropyl-3-(methoxymethyl)-5-(8-methyl-[1,2,4]triazolo[1,5-a]pyridin-6-yl)-2-(piperidin-4-yl)-6H-thieno[2,3-b]pyrrole]",–,–
500 pM,30400 pM,Cc1c(C23CCNCC2C3(F)F)sc2[nH]c(-c3cc(C)c4ncnn4c3)c(C(C)C)c12 (stereo not shown) [Example 204],–,–
160 pM,790 pM,"Cc1c(-c2[nH]c3sc([C@@H]4C[C@@H]5CC[C@H]4CN5CCS(C)(=O)=O)c(C)c3c2C(C)C)cn2ncnc2c1C (single isomer, unassigned) [Example 233]",–,–
1270 pM,330 pM,Cc1c(-c2[nH]c3sc([C@@H]4C[C@@H]5C[C@H]4CN5CC(=O)N(C)CCO)c(C)c3c2C(C)C)cn2ncnc2c1C [Example 266],–,–
940 pM,10700 pM,Cc1c(C2CC23CCNCC3)sc2[nH]c(-c3cc(C)c4ncnn4c3)c(C(C)C)c12 (stereo not shown) [Example 209],–,–
4860 pM,48400 pM,"Cc1c(-c2[nH]c3sc(C4CC(c5nnc([C@H]6COCCN6)o5)C4)c(C)c3c2C(C)C)cn2ncnc2c1C (single isomer, unassigned) [Example 240]",–,–
300 pM,280 pM,Cc1c(-c2[nH]c3sc([C@@H]4C[C@@H]5C[C@H]4CN5CC(=O)N[C@H]4C[C@@H](O)C4)c(C)c3c2C(C)C)cn2ncnc2c1C [Example 269],–,–
260 pM,3010 pM,Cc1c(-c2[nH]c3sc(C4CCNCC4)cc3c2C(C)C)cn2ncnc2c1C [Example 219],–,–
